Measurements reported in ChEMBL document CHEMBL1126719, “The solution conformation of (D)Phe-Pro-containing peptides: implications on the activity of Ac-(D)Phe-Pro-boroArg-OH, a potent thrombin inhibitor” (J Med Chem, 1993).
pKi: −log10 of the molar value.

What follows are compounds tested against Prothrombin (Homo sapiens, UniProt P00734) (assay: Inhibition constant for binding with thrombin was determined).

Compound	pKi
CC(=O)NCC(=O)NC(CCCN=C(N)N)B(O)O (stereo not given)	7.59
CC(=O)N[C@H](Cc1ccccc1)C(=O)NCC(=O)NC(CCCN=C(N)N)B(O)O (stereo not given in full)	8.37
CC(=O)N1CCC[C@H]1C(=O)NC(CCCN=C(N)N)B(O)O (stereo not given in full)	8.48

Now those with a higher pKi, led by results:

pKi	Compound
9.40	CC(C)(C)OC(=O)N[C@H](Cc1ccccc1)C(=O)NCC(=O)NC(CCCN=C(N)N)B(O)O (stereo not given in full)
11.40	CC(C)(C)OC(=O)N[C@H](Cc1ccccc1)C(=O)N1CCC[C@H]1C(=O)NC(CCCN=C(N)N)B(O)O (stereo not given in full)
